In ChEMBL document CHEMBL3817759, “Novel drug design for Chagas disease via targeting Trypanosoma cruzi tubulin: Homology modeling and binding pocket prediction on Trypanosoma cruzi tubulin polymerization inhibition by naphthoquinone derivatives” (Bioorg Med Chem, 2016):

How the values were obtained:
[1] = test system: Trypanosoma cruzi; assay: Antitrypanosomal activity against epimastigote stage of Trypanosoma cruzi Tulahuen CL98 after 48 hrs by hemocytometry; type: functional, organism-based; conditions: Tulahuen CL98, 48 h
[2] = Inhibition of Trypanosoma cruzi tubulin polymerization incubated at room temperature for 15 mins followed by 5 mins at 4 degC in presence of GTP by photometric method

Structure (SMILES) | IC50 [1] [µM] | IC50 [2] [µM]
CCCC(=O)N(C(=O)CCC)C1=C(Cl)C(=O)c2ccccc2C1=O | 0.7 | 3.2
O=C1C(Cl)=C(N(C(=O)c2cccc(Cl)c2)C(=O)c2cccc(Cl)c2)C(=O)c2ccccc21 | 2.23 | 8
O=C1C(Cl)=C(N2C(=O)c3ccccc3C2=O)C(=O)c2ccccc21 | 4.83 | 12
O=C1C(Cl)=C(N(C(=O)CCl)C(=O)CCl)C(=O)c2ccccc21 | 6.1 | > 40
O=C1C(Cl)=C(N2C(=O)CCC2=O)C(=O)c2ccccc21 | 2.77 | 6
CC1CS(=O)(=O)CCN1/N=C/c1ccc([N+](=O)[O-])o1 (stereo unspecified) [NIFURTIMOX] | 10.7 | 
